pIC50: −log10 of the molar value. “And” between values parts separate entries of the source, which are not always exact repeats. Equal entries are not always repeated. Where two headings read alike, the source gives them in different places.
Legend:
[1] = tested on: SARS-CoV-2 B.1.1.7 Spike pseudovirus; experiment: organism not typed; assay type: cell-based; conditions: read-out: IC50 B.1.1.7
[2] = in vivo
[3] = tested on: 293T-ACE2 cells; experiment: Cell viability test (CellTiter-Glo), 293T-ACE2; conditions: concentrations up to 100 µM, 48 h
[4] = tested on: authentic SARS-CoV-2 XBB.1; experiment: microbe, parasite or virus in culture; assay type: cell-based; conditions: Severe acute respiratory syndrome coronavirus 2, Vero C1008, read-out: IC50 authentic SARS-CoV-2 XBB.1
[5] = tested on: SARS-CoV-2 KP.3.1.1 Spike pseudovirus; experiment: organism not typed; assay type: cell-based; conditions: read-out: IC50 KP.3.1.1
[6] = tested on: SARS-CoV-2 BA.2.86 Spike pseudovirus; experiment: organism not typed; assay type: cell-based; conditions: read-out: IC50 BA.2.86
[7] = tested on: SARS-CoV-2 HK.3 Spike pseudovirus; experiment: organism not typed; assay type: cell-based; conditions: read-out: IC50 HK.3
[8] = tested on: SARS-CoV-2 XBB.1.16 Spike pseudovirus; experiment: organism not typed; assay type: cell-based; conditions: read-out: IC50 XBB.1.16
[9] = tested on: pseudoviral particles bearing the Spike glycoprotein from SARS-CoV-2; experiment: microbe, parasite or virus in culture; assay type: cell-based; conditions: pseudovirus, 293T-ACE2 cells, compounds up to 100 µM
[10] = tested on: SARS-CoV-2WA1-nLuc; set-up: species or system K18-hACE2 mice; conditions: mouse, in vivo
[11] = tested on: SARS-CoV-2 BA.4/5 Spike pseudovirus; experiment: organism not typed; assay type: cell-based; conditions: read-out: IC50 BA.4/5
[12] = tested on: pseudoviral particles carrying SARS-CoV-1 S; experiment: microbe, parasite or virus in culture; assay type: cell-based
[13] = tested on: SARS-CoV-2 JN.1 Spike pseudovirus; experiment: organism not typed; assay type: cell-based; conditions: read-out: IC50 JN.1
[14] = tested on: SARS-CoV-2 XEC Spike pseudovirus; experiment: organism not typed; assay type: cell-based; conditions: read-out: IC50 XEC
[15] = tested on: SARS-CoV-2 (Wuhan strain) ectodomain SΔTM trimers; conditions: 0.1 µM labeled Spike; 50 µM compound, 0.3 µM CV3-13, 0.6 µM ACE2; unbound Spike 40% ± 2%
[16] = tested on: pseudoviral particles carrying VSV-G; experiment: microbe, parasite or virus in culture; assay type: cell-based; conditions: Vesicular stomatitis virus
[17] = tested on: SARS-CoV-2 EG.5.1 Spike pseudovirus; experiment: organism not typed; assay type: cell-based; conditions: read-out: IC50 EG.5.1
[18] = tested on: Vero-E6 cells; experiment: Cell viability test (CellTiter-Glo), Vero-E6; conditions: concentrations up to 100 µM, 48 h
[19] = tested on: SARS-CoV-2 XBB.1.5 Spike pseudovirus; experiment: organism not typed; assay type: cell-based; conditions: read-out: IC50 XBB.1.5
[20] = Severe acute respiratory syndrome coronavirus 2, 293T/ACE2, read-out: IC50 SARS-CoV-2, Table 1
[21] = Severe acute respiratory syndrome coronavirus, 293T/ACE2, read-out: IC50 SARS-CoV-1
[22] = 293T/ACE2, read-out: IC50 VSV-G

Row | Compound | pIC50 [1] | Toxicity in 293T-ACE2 cells [3] | pIC50 [4] | pIC50 [5] | pIC50 [6] | pIC50 [7] | pIC50 [8] | pIC50 [9, 20] | pIC50 [11] | pIC50 [12, 21] | pIC50 ([12]; read-out: IC50 SARS-CoV-1) | pIC50 [13] | pIC50 [14] | RBD-up conformation occupancy [15] | pIC50 [16, 22] | pIC50 ([16]; 293T/ACE2, read-out: IC50 VSVG) | pIC50 [17] | Toxicity in Vero-E6 cells [18] | pIC50 [19] | further results
1 | CN(C)C[C@@H](O)COc1cc(Br)cc(OC[C@H](O)CN(C)C)c1 [Compound 27] | 5.95 | no toxicity | 4.62 | 5.62 | 5.48 | 6.14 | 5.74 | 6.36 | 5.84 | 6.21 | 6.20 and 6.03 | 5.87 | 5.75 | 55% ± 2% | 4.28 | < 4.00 | 5.95 | no toxicity | 5.98 | Concentration in plasma ([2]; both, K18-hACE2, mouse): ~ 1.5 µM; Plasma retention ([2]; mouse): short plasma retention; Brain penetration ([2]; mouse, ip): minimal penetration in the brain; pIC50 ([9]; read-out: IC50 SARS-CoV-2, Table 1): 6.36; Protection / survival outcome [10]: succumbed to virus-induced mortality; Survival extended compared to the control group [10]: 1 days
2 | CCN(C)C[C@@H](O)COc1cc(Br)cc(OC[C@H](O)CN(C)CC)c1 [Compound 33] | 5.84 | no toxicity | 4.77 | 5.52 | 5.53 | 5.63 | 5.67 | 5.77 | 5.55 | 5.84 | 5.89 | 5.69 | 5.62 | 61% ± 2% | < 4.00 | < 4.00 | 5.74 | no toxicity | 5.61 | 
3 | ACE2 |  |  |  |  |  |  |  |  |  |  |  |  |  | 67% ± 2% |  |  |  |  |  | 
4 | CN1CCN(C[C@@H](O)COc2cc(Br)cc(OC[C@H](O)CN3CCN(C)CC3)c2)CC1 [Compound 30] | 5.90 | no toxicity | 4.42 | 5.67 | 5.45 | 6.27 | 5.85 | 5.83 | 5.31 | 5.70 | 5.88 | 5.41 | 5.51 |  | 4.09 | < 4.00 | 5.82 | no toxicity | 5.98 | 
